Test results from PubChem BioAssay AID1963865 (Molecular Pharmacology Branch, DTP, NCI, 2024).

System: KRAS PDC multicell spheroid viability
Assay: Anticancer human tumor 825966-067-R-J1-PDC patient-derived colon carcinoma cell line growth inhibition [KRAS2]
Details: for viability, T/C: stronger effect = lower value
Procedure, shortened: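 Combination screen of spheroid viability in tumor-cell co-cultures with endothelial (HUVEC) and mesenchymal stem cell stroma. Each agent was tested in half-log dilutions, topping at clinical Cmax or at 10 microM without a known Cmax.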

[1] = curve of first compound, second compound 0.1 µM
[2] = curve of first compound, second compound 0.316 µM
[3] = curve of first compound, second compound 1 µM
[4] = curve of first compound, second compound 3.16 µM
[5] = curve of first compound, second compound 10 µM
[6] = second compound 0.1 µM, first compound 0.0316 µM
[7] = second compound 0.1 µM, first compound 0.1 µM
[8] = second compound 0.316 µM, first compound 0.0316 µM
[9] = second compound 0.316 µM, first compound 0.1 µM
[10] = second compound 1 µM, first compound 0.0316 µM
[11] = second compound 1 µM, first compound 0.1 µM
[12] = second compound 3.16 µM, first compound 0.0316 µM
[13] = second compound 3.16 µM, first compound 0.1 µM
[14] = second compound 10 µM, first compound 0.0316 µM
[15] = second compound 10 µM, first compound 0.1 µM
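Note: spheroids exposed to compounds for 7 days.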
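Throughout, for viability, T/C: 100% = DMSO vehicle control viability.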

Structure (SMILES): CN(C)C/C=C/C(=O)Nc1cc2c(Nc3ccc(F)c(Cl)c3)ncnc2cc1O[C@H]1CCOC1 + CC1OCC2(CCN(c3cnc(Sc4ccnc(N)c4Cl)c(N)n3)CC2)C1N
- IC50 [1]: > 100 nM
- IC50 [2]: > 100 nM
- IC50 [3]: > 100 nM
- IC50 [4]: > 100 nM
- IC50 [5]: > 100 nM
- viability, T/C (second compound 0.1 µM, first compound 0.000316 µM): 103%
- viability, T/C (second compound 0.1 µM, first compound 0.001 µM): 100%
- viability, T/C (second compound 0.1 µM, first compound 0.00316 µM): 126%
- viability, T/C (second compound 0.1 µM, first compound 0.01 µM): 120%
- viability, T/C [6]: 91.4%
- viability, T/C [7]: 80.2%
- viability, T/C (second compound 0.316 µM, first compound 0.000316 µM): 93.4%
- viability, T/C (second compound 0.316 µM, first compound 0.001 µM): 86.6%
- viability, T/C (second compound 0.316 µM, first compound 0.00316 µM): 94.2%
- viability, T/C (second compound 0.316 µM, first compound 0.01 µM): 79.1%
- viability, T/C [8]: 105%
- viability, T/C [9]: 101%
- viability, T/C (second compound 1 µM, first compound 0.000316 µM): 104%
- viability, T/C (second compound 1 µM, first compound 0.001 µM): 118%
- viability, T/C (second compound 1 µM, first compound 0.00316 µM): 99%
- viability, T/C (second compound 1 µM, first compound 0.01 µM): 81.8%
- viability, T/C [10]: 84.2%
- viability, T/C [11]: 96.8%
- viability, T/C (second compound 3.16 µM, first compound 0.000316 µM): 100%
- viability, T/C (second compound 3.16 µM, first compound 0.001 µM): 105%
- viability, T/C (second compound 3.16 µM, first compound 0.00316 µM): 93.9%
- viability, T/C (second compound 3.16 µM, first compound 0.01 µM): 86.3%
- viability, T/C [12]: 88.1%
- viability, T/C [13]: 85.9%
- viability, T/C (second compound 10 µM, first compound 0.000316 µM): 81.1%
- viability, T/C (second compound 10 µM, first compound 0.001 µM): 87.2%
- viability, T/C (second compound 10 µM, first compound 0.00316 µM): 108%
- viability, T/C (second compound 10 µM, first compound 0.01 µM): 107%
- viability, T/C [14]: 94.9%
- viability, T/C [15]: 124%

Structure (SMILES): COc1cc2nccc(Oc3ccc(NC(=O)C4(C(=O)Nc5ccc(F)cc5)CC4)cc3)c2cc1OC + COc1cc2nc(C)nc(NC(C)c3cc(N)cc(C(F)(F)F)c3)c2cc1OC1CCOC1
- IC50 [1]: 1560 nM
- IC50 [2]: 1460 nM
- IC50 [3]: 1630 nM
- IC50 [4]: 675 nM
- IC50 [5]: < 31.6 nM
- viability, T/C [6]: 80.9%
- viability, T/C [7]: 87.8%
- viability, T/C (second compound 0.1 µM, first compound 0.316 µM): 83.9%
- viability, T/C (second compound 0.1 µM, first compound 1 µM): 75.1%
- viability, T/C (second compound 0.1 µM, first compound 3.16 µM): 9.68%
- viability, T/C (second compound 0.1 µM, first compound 10 µM): 7.53%
- viability, T/C [8]: 96.2%
- viability, T/C [9]: 81.1%
- viability, T/C (second compound 0.316 µM, first compound 0.316 µM): 77.5%
- viability, T/C (second compound 0.316 µM, first compound 1 µM): 71.4%
- viability, T/C (second compound 0.316 µM, first compound 3.16 µM): 6.75%
- viability, T/C (second compound 0.316 µM, first compound 10 µM): 4.21%
- viability, T/C [10]: 77.1%
- viability, T/C [11]: 98.6%
- viability, T/C (second compound 1 µM, first compound 0.316 µM): 78.5%
- viability, T/C (second compound 1 µM, first compound 1 µM): 83.5%
- viability, T/C (second compound 1 µM, first compound 3.16 µM): 4.2%
- viability, T/C (second compound 1 µM, first compound 10 µM): 5.34%
- viability, T/C [12]: 82.3%
- viability, T/C [13]: 80.6%
- viability, T/C (second compound 3.16 µM, first compound 0.316 µM): 91.9%
- viability, T/C (second compound 3.16 µM, first compound 1 µM): 31.9%
- viability, T/C (second compound 3.16 µM, first compound 3.16 µM): 2.11%
- viability, T/C (second compound 3.16 µM, first compound 10 µM): 0.21%
- viability, T/C [14]: 21%
- viability, T/C [15]: 3.18%
- viability, T/C (second compound 10 µM, first compound 0.316 µM): 1.6%
- viability, T/C (second compound 10 µM, first compound 1 µM): 1.58%
- viability, T/C (second compound 10 µM, first compound 3.16 µM): 0.32%
- viability, T/C (second compound 10 µM, first compound 10 µM): 0.7%

Structure (SMILES): Cn1nccc1Nc1nccc(-c2cc3c(s2)C(C)(C)N(CCN2CCOCC2)C3=O)n1
- viability, T/C (compound 0.0316 µM): 90.9% [middle of 5 runs]
- viability, T/C (compound 0.1 µM): 94.8% [middle of 5 runs]
- viability, T/C (compound 0.316 µM): 109% [middle of 5 runs]
- viability, T/C (compound 3.16 µM): 96% [middle of 5 runs]
- viability, T/C (compound 10 µM): 81.8% [middle of 5 runs]
- IC50 (curve of compound): > 10000 nM
